# Molecular target: human plasma kallikrein (Homo sapiens (Human), UniProt P03952)
# Test: Plasma kallikrein activity assay (chromogenic substrate S2302)
# Format: biochemical
# Conditions: 2 nM kallikrein, 80 μM S2302, 30° C., pH 7.8; Ki by Cheng-Prusoff equation; values given as ranges; read-out: Ki
# Method: Plasma Kallikrein Activity Assay.
# The effect of compounds of the invention on human plasma kallikrein activity was determined using the chromogenic substrates (DiaPharma Group, Inc., West Chester, Ohio, USA). In these experiments, 2 nM kallikrein (Enzyme Research Laboratories, South Bend, Ind., USA) was incubated with 80 μM S2302 (H-D-Pro-Phe-Arg-p-nitroaniline) in the absence or presence of increasing concentrations of compounds of the invention in a final volume of 200 μL Tris-HCl buffer (200 mM NaCl; mM CaCl2; 50 mM Tris-HCl, pH 7.8).
# Data were analyzed using SigmaPlot software (Systat Software, Inc., San Jose, Calif., USA) (Four Parameter Logistic Curve).
# Sequence of human plasma kallikrein (P03952 whole entry, looked up): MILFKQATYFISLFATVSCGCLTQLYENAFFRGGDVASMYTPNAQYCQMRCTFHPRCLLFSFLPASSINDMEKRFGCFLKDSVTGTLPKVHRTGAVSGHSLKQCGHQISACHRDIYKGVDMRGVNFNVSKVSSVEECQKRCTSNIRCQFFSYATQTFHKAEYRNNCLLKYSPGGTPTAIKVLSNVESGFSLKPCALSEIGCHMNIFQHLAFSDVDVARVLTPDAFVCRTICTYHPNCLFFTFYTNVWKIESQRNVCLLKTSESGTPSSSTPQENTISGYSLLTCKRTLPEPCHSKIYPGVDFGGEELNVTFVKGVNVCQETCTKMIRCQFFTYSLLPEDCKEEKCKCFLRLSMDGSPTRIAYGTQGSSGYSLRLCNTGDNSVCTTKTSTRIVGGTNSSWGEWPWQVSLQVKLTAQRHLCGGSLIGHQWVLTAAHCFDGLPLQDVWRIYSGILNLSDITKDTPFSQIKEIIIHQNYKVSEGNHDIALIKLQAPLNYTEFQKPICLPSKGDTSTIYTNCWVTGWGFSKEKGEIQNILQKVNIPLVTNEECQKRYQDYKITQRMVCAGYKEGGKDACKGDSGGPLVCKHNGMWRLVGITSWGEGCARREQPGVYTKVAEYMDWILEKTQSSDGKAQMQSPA
# Sequence of human plasma kallikrein (P03952 whole entry partner, looked up): as the sequence (P03952 whole entry, looked up) above
row,SMILES,Ki [nM]
1,"N#Cc1ccc(C(N)(CCC2CC2)c2ccc(F)c(NC(=O)c3cc(C(F)(F)F)nn3-c3cccc(C(=N)N)c3)c2)cc1 (single isomer, unassigned; (+)) [241a, (+)-N-(5-(1-amino-1-(4-cyanophenyl)-3-cyclopropylpropyl)-2-fluorophenyl)-1-(3-carbamimidoylphenyl)-3-(trifluoromethyl)-1H-pyrazole-5-carboxamide]",0.1 to 50
2,"NCc1cccc(-n2nc(C(F)(F)F)cc2C(=O)Nc2cccc(C(NCC3CC3)c3cc(O)ccc3O)c2)c1 (centres unmarked) [146g, 1-(3-(aminomethyl)phenyl)-N-(3-((cyclopropylmethylamino)(2,5-dihydroxyphenyl)methyl)phenyl)-3-(trifluoromethyl)-1H-pyrazole-5-carboxamide]",0.1 to 50
3,"COc1cccc(C(NCC2CC2)c2cccc(NC(=O)c3cc(C(F)(F)F)nn3-c3cccc(CN)c3)c2)c1 (centres unmarked) [109f, 1-(3-(Aminomethyl)phenyl)-N-(3-((cyclopropylmethylamino)(3-methoxyphenyl)methyl)phenyl)-3-(trifluoromethyl)-1H-pyrazole-5-carboxamide]",0.1 to 50
4,"NCc1cccc(-n2nc(C(F)(F)F)cc2C(=O)Nc2cccc(C(OCC3CC3)c3cccc(N)c3)c2)c1 (centres unmarked) [53f, 1-(3-(aminomethyl)phenyl)-N-(3-((3-aminophenyl)(cyclopropyl-methoxy)methyl)phenyl)-3-(trifluoromethyl)-1H-pyrazole-5-carboxamide]",0.1 to 50
5,"CN1CCc2c(ccc(NC(=O)c3cc(C(F)(F)F)nn3-c3cccc(CN)c3)c2F)C1 [164e, 1-(3-(aminomethyl)phenyl)-N-(5-fluoro-2-methyl-1,2,3,4-tetrahydroisoquinolin-6-yl)-3-(trifluoromethyl)-1H-pyrazole-5-carboxamide]",0.1 to 50
6,"NCc1cccc(-n2nc(C(F)(F)F)cc2C(=O)Nc2cccc(C(O)(CCC3CC3)c3ccccc3)c2)c1 (single isomer, unassigned; (+)) [46h, (+)-1-(3-(aminomethyl)phenyl)-N-(3-(3-cyclopropyl-1-hydroxy-1-phenylpropyl)phenyl)-3-(trifluoromethyl)-1H-pyrazole-5-carboxamide]",0.1 to 50
7,"NCc1cccc(-n2nc(C(F)(F)F)cc2C(=O)Nc2cccc(C(NCC3CC3)c3ccccc3F)c2)c1 (centres unmarked) [117e, 1-(3-(aminomethyl)phenyl)-N-(3-((cyclopropylmethylamino)(2-fluorophenyl)methyl)phenyl)-3-(trifluoromethyl)-1H-pyrazole-5-carboxamide]",0.1 to 50
8,"N#Cc1cccc(C(N)(CCC2CC2)c2ccc(F)c(NC(=O)c3cc(C(F)(F)F)nn3-c3cccc(C(=N)N)c3)c2)c1 (single isomer, unassigned; (+)) [237a, (+)-N-(5-(1-amino-1-(3-cyanophenyl)-3-cyclopropylpropyl)-2-fluorophenyl)-1-(3-carbamimidoylphenyl)-3-(trifluoromethyl)-1H-pyrazole-5-carboxamide]",0.1 to 50
9,"NCc1cccc(-n2nc(C(F)(F)F)cc2C(=O)Nc2cccc(C(NCC3CC3)c3cccc4c3OCO4)c2)c1 (centres unmarked) [192f, 1-(3-(aminomethyl)phenyl)-N-(3-(benzo[d][1,3]dioxol-4-yl(cyclopropylmethylamino)methyl)phenyl)-3-(trifluoromethyl)-1H-pyrazole-5-carboxamide]",0.1 to 50
10,"N#Cc1cccc(C(N)(CCC2CC2)c2cccc(NC(=O)c3cc(C(F)(F)F)nn3-c3cccc(CN)c3)c2)c1 (single isomer, unassigned; (+)) [219c, (+)-N-(3-(1-amino-1-(3-cyanophenyl)-3-cyclopropylpropyl)phenyl)-1-(3-(aminomethyl)phenyl)-3-(trifluoromethyl)-1H-pyrazole-5-carboxamide]",0.1 to 50
11,"CCCN(c1ccccc1)c1ccc(F)c(NC(=O)c2cc(C(F)(F)F)nn2-c2cccc(CN)c2)c1 [77e, 1-(3-(aminomethyl)phenyl)-N-(2-fluoro-5-(phenyl(propyl)amino)phenyl)-3-(trifluoromethyl)-1H-pyrazole-5-carboxamide]",0.1 to 50
12,"NCc1cccc(-n2nc(C(F)(F)F)cc2C(=O)Nc2cccc(C(NCC3CC3)c3cccc(F)c3)c2)c1 (centres unmarked) [195f, 1-(3-(aminomethyl)phenyl)-N-(3-(((cyclopropylmethyl)amino)(3-fluorophenyl)methyl)phenyl)-3-(trifluoromethyl)-1H-pyrazole-5-carboxamide]",0.1 to 50
13,"CCC(=O)NC(CCC1CC1)(c1cccnc1)c1ccc(F)c(NC(=O)c2cc(C(F)(F)F)nn2-c2cccc(CN)c2)c1 (single isomer, unassigned; (-)) [244i, (−)-1-(3-(aminomethyl)phenyl)-N-(5-(3-cyclopropyl-1-propionamido-1-(pyridin-3-yl)propyl)-2-fluorophenyl)-3-(trifluoromethyl)-1H-pyrazole-5-carboxamide]",0.1 to 50
14,"NCc1cccc(-n2nc(C(F)(F)F)cc2C(=O)Nc2cccc(C(OCC3CC3)c3ccccc3)c2)c1 (single isomer, unassigned; (-)) [165e, (−)-1-(3-(aminomethyl)phenyl)-N-(3-((cyclopropylmethoxy)(phenyl)methyl)phenyl)-3-(trifluoromethyl)-1H-pyrazole-5-carboxamide]",0.1 to 50
15,"N#Cc1cccc(C(N)(CCC2CC2)c2ccc(F)c(NC(=O)c3cc(C(F)(F)F)nn3-c3ccc4ccnc(N)c4c3)c2)c1 (single isomer, unassigned; (+)) [256a, (+)-N-(5-(1-amino-1-(3-cyanophenyl)-3-cyclopropylpropyl)-2-fluorophenyl)-1-(1-aminoisoquinolin-7-yl)-3-(trifluoromethyl)-1H-pyrazole-5-carboxamide]",0.1 to 50
16,"NCc1cccc(-n2nc(C(F)(F)F)cc2C(=O)Nc2cccc(C(NCC3CC3)c3c4ccccc4c(Cl)c4ccccc34)c2)c1 (centres unmarked) [118f, 1-(3-(aminomethyl)phenyl)-N-(3-((10-chloroanthracen-9-yl)(cyclopropylmethylamino)methyl)phenyl)-3-(trifluoromethyl)-1H-pyrazole-5-carboxamide]",0.1 to 50
17,"NCc1cccc(-n2nc(C(F)(F)F)cc2C(=O)Nc2cccc(C(NCC3CC3)c3cccc(O)c3)c2)c1 (centres unmarked) [137a, 1-(3-(Aminomethyl)phenyl)-N-(3-((cyclopropylmethylamino)(3-hydroxyphenyl)methyl)phenyl)-3-(trifluoromethyl)-1H-pyrazole-5-carboxamide]",0.1 to 50
18,"CS(=O)(=O)NC(CCC1CC1)(c1ccncc1)c1ccc(F)c(NC(=O)c2cc(C(F)(F)F)nn2-c2cccc(CN)c2)c1 (single isomer, unassigned; (-)) [245c, (−)-1-(3-(aminomethyl)phenyl)-N-(5-(3-cyclopropyl-1-(methylsulfonamido)-1-(pyridin-4-yl)propyl)-2-fluorophenyl)-3-(trifluoromethyl)-1H-pyrazole-5-carboxamide]",0.1 to 50
19,"CS(=O)(=O)c1ccccc1C(NCC1CC1)c1cccc(NC(=O)c2cc(C(F)(F)F)nn2-c2cccc(CN)c2)c1 (centres unmarked) [121f, 1-(3-(aminomethyl)phenyl)-N-(3-((cyclopropylmethylamino)(2-(methylsulfonyl)phenyl)methyl)phenyl)-3-(trifluoromethyl)-1H-pyrazole-5-carboxamide]",0.1 to 50
20,"NCc1cccc(-n2nc(C(F)(F)F)cc2C(=O)Nc2cccc(C(NCC3CC3)c3cccc(OC(F)(F)F)c3)c2)c1 (centres unmarked) [124f, 1-(3-(aminomethyl)phenyl)-N-(3-((cyclopropylmethylamino)(3-(trifluoromethoxy)phenyl)methyl)phenyl)-3-(trifluoromethyl)-1H-pyrazole-5-carboxamide]",0.1 to 50

# From patent US11203574B2 (BioCryst Pharmaceuticals, Inc., priority 2014, dated 2021)
